Legend:
[1] = Inhibition of Mycobacterium tuberculosis shikimate kinase using shikimic acid substrate by measuring oxidation of NADH to NAD by pyruvate kinase and lactate dehydrogenase coupled enzyme assay based Dixon plot analysis
Shikimate kinase = Shikimate kinase (Helicobacter pylori (strain ATCC 700392 / 26695) (Campylobacterpylori), UniProt P56073); test: Inhibition of Helicobacter pylori shikimate kinase using shikimic acid substrate by measuring oxidation of NADH to NAD by pyruvate kinase and lactate dehydrogenase coupled enzyme assay based Dixon plot analysis
[2] = Inhibition of Mycobacterium tuberculosis shikimate kinase
Helicobacter pylori = test: Antimicrobial activity against Helicobacter pylori clinical isolates assessed as inhibition of visible microbial growth incubated for 6 days by agar dilution method; assay type: functional; conditions: 144 h

Sequence of Shikimate kinase (P56073 whole entry): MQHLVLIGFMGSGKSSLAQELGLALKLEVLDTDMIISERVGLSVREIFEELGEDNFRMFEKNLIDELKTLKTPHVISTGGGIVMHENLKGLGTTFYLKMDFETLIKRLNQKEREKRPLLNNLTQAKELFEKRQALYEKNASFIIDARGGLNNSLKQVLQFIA

| SMILES | Ki [1] | Ki (Shikimate kinase) | Ki [2] | MIC (Helicobacter pylori) |
| --- | --- | --- | --- | --- |
| O=C(O)C1=C[C@@H](O)[C@@H](O)[C@H](OCc2c(F)c(F)c(F)c(F)c2F)C1 | 710 µM | 41 µM | – | – |
| N[C@H]1C=C(C(=O)O)C[C@@H](OCc2ccc3sccc3c2)[C@@H]1O | 415 µM | 535 µM | – | – |
| Cc1ccc(CO[C@@H]2CC(C(=O)O)=C[C@@H](O)[C@H]2O)cc1 | 166 µM | 10.9 µM | – | – |
| N[C@H]1C=C(C(=O)O)C[C@@H](O)[C@@H]1O | – | – | 65 µM | – |
| N[C@H]1C=C(C(=O)O)C[C@@H](OCc2ccc3ccccc3c2)[C@@H]1O | > 2000 µM | > 800 µM | – | – |
| COC(=O)C1=C[C@H](N)[C@@H](O)[C@H](OCc2ccc3ccccc3c2)C1 | – | – | – | 64 µg/mL |
| O=C(O)C1=C[C@@H](O)[C@@H](O)[C@H](n2cc(Cc3ccccc3)nn2)C1 | > 2000 µM | 95 µM | – | – |
| CC1(C)S[C@@H]2[C@H](NC(=O)[C@H](N)c3ccccc3)C(=O)N2[C@H]1C(=O)O [AMPICILLIN] | – | – | – | 1 µg/mL |
| COC(=O)C1=C[C@@H](O)[C@@H](O)[C@H](OCc2ccc3sccc3c2)C1 | – | – | – | 4 µg/mL |
| O=C(O)C1=C[C@@H](O)[C@@H](O)[C@H](OCc2ccc3ccccc3c2)C1 | 22 µM | 1.8 µM | – | – |
| O=C(O)C1=C[C@@H](O)[C@@H](O)[C@H](OCc2ccccc2)C1 | 360 µM | 3 µM | – | – |
| O=C(O)C1=C[C@@H](O)[C@@H](O)[C@H](OCc2ccc3sccc3c2)C1 | 43 µM | 0.56 µM | – | – |
| O=C(O)C1=C[C@@H](O)[C@@H](O)[C@H](OCc2cccc([N+](=O)[O-])c2)C1 | 10 µM | 0.46 µM | – | – |
| Cc1cccc(CO[C@@H]2CC(C(=O)O)=C[C@@H](O)[C@H]2O)c1 | 109 µM | 2.1 µM | – | – |
| COC(=O)C1=C[C@H](N)[C@@H](O)[C@H](OCc2ccc3sccc3c2)C1 | – | – | – | 256 µg/mL |
| COc1cccc(CO[C@@H]2CC(C(=O)O)=C[C@@H](O)[C@H]2O)c1 | 135 µM | 1 µM | – | – |
| COC(=O)C1=C[C@@H](O)[C@@H](O)[C@H](n2cc(COc3ccccc3)nn2)C1 | – | – | – | 128 µg/mL |
| O=C(O)C1=C[C@@H](O)[C@@H](O)[C@H](OCc2cccc(F)c2)C1 | 180 µM | 1.28 µM | – | – |
| O=C(O)C1=C[C@@H](O)[C@@H](O)[C@H](n2cc(COc3ccccc3)nn2)C1 | > 2000 µM | 67 µM | – | – |
| COC(=O)C1=C[C@@H](O)[C@@H](O)[C@H](n2cc(Cc3ccccc3)nn2)C1 | – | – | – | 256 µg/mL |
| COC(=O)C1=C[C@@H](O)[C@H](O)[C@H](OCc2cccc([N+](=O)[O-])c2)C1 | – | – | – | 128 µg/mL |
